Literature values, collected in article PMC12307812 (Nature Communications, 2025).

System: TMPRSS2
Set-up: method as in earlier work
Conditions: top 50 compounds by AUC, Figure 2 source data; cited from earlier work

Structure (SMILES) | max response (%)
C#C[C@]1(O)CC[C@H]2[C@@H]3CCC4=CC(=O)CCC4=C3C=C[C@@]21CC [NCGC00167457-02] | -24.7304
S=P(N1CC1)(N1CC1)N1CC1 [NCGC00095042-09] | -29.4275
C=C1CC[C@H](O)C/C1=C\C=C1/CCC[C@]2(C)[C@@H]([C@H](C)/C=C/[C@H](C)C(C)C)CC[C@@H]12 [NCGC00166307-05] | -20.0382
O=C(c1ccc(F)cc1)C1CCN(CCn2c(=O)[nH]c3ccccc3c2=O)CC1 [NCGC00021146-09] | -16.7557
Clc1cccc(C(c2ccc3nc[nH]c3c2)n2ccnc2)c1 (stereo not shown) [NCGC00181034-03] | -10.9542
CN(C)C(=O)COC(=O)Cc1ccc(OC(=O)c2ccc(N=C(N)N)cc2)cc1.CS(=O)(=O)O [NCGC00167526-02] | -95.3053
O=C1N=C([O-])CN1/N=C/c1ccc(-c2ccc([N+](=O)[O-])cc2)o1.[Na+] [NCGC00024622-05] | -21.3359
CC(N)C12CC3CC(CC(C3)C1)C2.Cl (stereo not shown) [NCGC00159491-04] | -13.9313
N=C(N)c1ccc(OCCCOc2ccc(C(=N)N)cc2Br)c(Br)c1 [NCGC00189076-01] | -77.315
C=C1C(=O)O[C@@H]2[C@H]3O[C@]3(C)CC/C=C(/C)CC[C@@H]12 [NCGC00024683-23] | -10.5725
CCOC(=O)c1ccc(OC(=O)CCCCCN=C(N)N)cc1.CS(=O)(=O)O [NCGC00025297-04] | -83.626
C=CC[C@@H]1/C=C(\C)C[C@H](C)C[C@H](OC)[C@H]2O[C@@](O)(C(=O)C(=O)N3CCCC[C@H]3C(=O)O[C@H](/C(C)=C/[C@@H]3CC[C@@H](O)[C@H](OC)C3)[C@H](C)[C@@H](O)CC1=O)[C@H](C)C[C@@H]2OC [NCGC00163470-27] | -28.9699
COc1cc(C)c(Cc2cnc(N)nc2N)cc1OC [NCGC00167523-03] | -8.206
N=C(N)c1ccc(/C=C/c2ccc(C(=N)N)cc2O)cc1 [NCGC00166289-02] | -82.5214
O=[N+]([O-])C(Br)(CO)CO [NCGC00164057-03] | -6.336
CCCCCCCCCCCCCCCC[n+]1ccccc1.[Br-] [NCGC00091023-06] | -21.1069
